Test system: 565232-114-T-J1-PDC complex spheroid viability
Test: Anticancer human tumor 565232-114-T-J1-PDC patient-derived bladder carcinoma cell line growth inhibition [CLK]
Details: for IC50: curve of first compound; for viability, T/C: stronger effect = lower value; active = viability on the fitted dose curve at most 10% of control; inactive = the rest
Method in brief: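 Multi-cell-type spheroids combined patient-derived tumor cells with HUVEC endothelial cells and human mesenchymal stem cells. Paired agents were dosed in half-log steps down from about clinical Cmax, or from 10 microM where Cmax was unknown.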

[1] = second compound 0.0316 µM, first compound 0.0316 µM
[2] = second compound 0.0316 µM, first compound 0.1 µM
[3] = second compound 0.0316 µM, first compound 0.316 µM
[4] = second compound 0.0316 µM, first compound 1 µM
[5] = second compound 0.0316 µM, first compound 3.16 µM
[6] = second compound 0.0316 µM, first compound 10 µM
[7] = second compound 0.1 µM, first compound 0.0316 µM
[8] = second compound 0.1 µM, first compound 0.1 µM
[9] = second compound 0.1 µM, first compound 0.316 µM
[10] = second compound 0.1 µM, first compound 1 µM
[11] = second compound 0.1 µM, first compound 3.16 µM
[12] = second compound 0.1 µM, first compound 10 µM
[13] = second compound 0.316 µM, first compound 0.0316 µM
[14] = second compound 0.316 µM, first compound 0.1 µM
[15] = second compound 0.316 µM, first compound 0.316 µM
[16] = second compound 0.316 µM, first compound 1 µM
[17] = second compound 0.316 µM, first compound 3.16 µM
[18] = second compound 0.316 µM, first compound 10 µM
[19] = second compound 1 µM, first compound 0.0316 µM
[20] = second compound 1 µM, first compound 0.1 µM
[21] = second compound 1 µM, first compound 0.316 µM
[22] = second compound 1 µM, first compound 1 µM
[23] = second compound 1 µM, first compound 3.16 µM
[24] = second compound 1 µM, first compound 10 µM
[25] = second compound 3.16 µM, first compound 0.0316 µM
[26] = second compound 3.16 µM, first compound 0.1 µM
[27] = second compound 3.16 µM, first compound 0.316 µM
[28] = second compound 3.16 µM, first compound 1 µM
[29] = second compound 3.16 µM, first compound 3.16 µM
[30] = second compound 3.16 µM, first compound 10 µM
[31] = second compound 10 µM, first compound 0.0316 µM
[32] = second compound 10 µM, first compound 0.1 µM
[33] = second compound 10 µM, first compound 0.316 µM
[34] = second compound 10 µM, first compound 1 µM
[35] = second compound 10 µM, first compound 3.16 µM
[36] = second compound 10 µM, first compound 10 µM
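Also: spheroids exposed to compounds for 7 days before readout.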
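For viability, T/C in this document: 100% = DMSO vehicle wells with luminescence normalized to vehicle control.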

CC1(C)CCC(CN2CCN(c3ccc(C(=O)NS(=O)(=O)c4ccc(NCC5CCOCC5)c([N+](=O)[O-])c4)c(Oc4cnc5[nH]ccc5c4)c3)CC2)=C(c2ccc(Cl)cc2)C1 + CNC(=O)c1ccc(Nc2nc(OC3CCCC3)c3c(-c4ccc5nc(C)oc5c4)c[nH]c3n2)c(OC)c1
2340 nM: IC50 (second compound 0.1 µM)
inactive: viability, T/C [1] 82.7% | viability, T/C [2] 93.9% | viability, T/C [3] 95.7% | viability, T/C [4] 95.2% | viability, T/C [5] 92.7% | viability, T/C [6] 44.7% | viability, T/C [7] 60.2% | viability, T/C [8] 55.1% | viability, T/C [9] 52.6% | viability, T/C [10] 53.6% | viability, T/C [11] 49.4% | viability, T/C [12] 30.5% | viability, T/C [13] 37.3% | viability, T/C [14] 38.1% | viability, T/C [15] 39.3% | viability, T/C [16] 33.5% | viability, T/C [17] 32.7% | viability, T/C [18] 23.7% | viability, T/C [19] 21.2% | viability, T/C [20] 23.3% | viability, T/C [21] 25.4% | viability, T/C [22] 26.6% | viability, T/C [23] 28.7% | viability, T/C [24] 20.6% | viability, T/C [25] 22% | viability, T/C [26] 20.8% | viability, T/C [27] 23.6% | viability, T/C [28] 20.8% | viability, T/C [29] 20.8% | viability, T/C [30] 17.1% | viability, T/C [31] 21.5% | viability, T/C [32] 19.9% | viability, T/C [33] 18.5% | viability, T/C [34] 21.1% | viability, T/C [35] 20.1% | viability, T/C [36] 16.5%
< 31.6 nM: IC50 (second compound 0.316 µM) | IC50 (second compound 1 µM) | IC50 (second compound 3.16 µM) | IC50 (second compound 10 µM)
8790 nM: IC50 (second compound 0.0316 µM)

CC1COCCN1c1cc(C2(S(C)(=N)=O)CC2)nc(-c2ccnc3[nH]ccc23)n1 (stereo not drawn) + CNC(=O)c1ccc(Nc2nc(OC3CCCC3)c3c(-c4ccc5nc(C)oc5c4)c[nH]c3n2)c(OC)c1
6350 nM: IC50 (second compound 0.0316 µM)
inactive: viability, T/C [1] 95.2% | viability, T/C [2] 85.1% | viability, T/C [3] 93.2% | viability, T/C [4] 79.4% | viability, T/C [5] 103% | viability, T/C [6] 23.2% | viability, T/C [7] 55.6% | viability, T/C [8] 57% | viability, T/C [9] 42% | viability, T/C [10] 44.2% | viability, T/C [11] 30.2% | viability, T/C [12] 11.5% | viability, T/C [13] 31.4% | viability, T/C [14] 38.3% | viability, T/C [15] 35.7% | viability, T/C [16] 28.6% | viability, T/C [17] 22% | viability, T/C [18] 9.67% | viability, T/C [19] 24.7% | viability, T/C [20] 25.2% | viability, T/C [21] 25.9% | viability, T/C [22] 23.8% | viability, T/C [23] 11.1% | viability, T/C [25] 19.1% | viability, T/C [26] 17.4% | viability, T/C [27] 17.4% | viability, T/C [28] 13.3% | viability, T/C [31] 19% | viability, T/C [32] 21.1% | viability, T/C [33] 20.5% | viability, T/C [34] 15.5%
< 31.6 nM: IC50 (second compound 0.316 µM) | IC50 (second compound 1 µM) | IC50 (second compound 3.16 µM) | IC50 (second compound 10 µM)
222 nM: IC50 (second compound 0.1 µM)
active: viability, T/C [24] 4.92% | viability, T/C [29] 11.2% | viability, T/C [30] 2.86% | viability, T/C [35] 6.6% | viability, T/C [36] 1.53%

NC(=O)C(=Cn1cnc(-c2cc(C(F)(F)F)cc(C(F)(F)F)c2)n1)c1cncnc1 + CNC(=O)c1ccc(Nc2nc(OC3CCCC3)c3c(-c4ccc5nc(C)oc5c4)c[nH]c3n2)c(OC)c1
active: viability, T/C (second compound 0.0316 µM, first compound 0.949 µM) 1.65% | viability, T/C (second compound 0.0316 µM, first compound 3 µM) 0.39% | viability, T/C (second compound 0.1 µM, first compound 0.949 µM) 1% | viability, T/C (second compound 0.1 µM, first compound 3 µM) 0.65% | viability, T/C (second compound 0.316 µM, first compound 0.949 µM) 1.36% | viability, T/C (second compound 0.316 µM, first compound 3 µM) 1.61% | viability, T/C (second compound 1 µM, first compound 0.3 µM) 5.67% | viability, T/C (second compound 1 µM, first compound 0.949 µM) 0.48% | viability, T/C (second compound 1 µM, first compound 3 µM) 1.21% | viability, T/C (second compound 3.16 µM, first compound 0.3 µM) 4.75% | viability, T/C (second compound 3.16 µM, first compound 0.949 µM) 1.02% | viability, T/C (second compound 3.16 µM, first compound 3 µM) 0.26% | viability, T/C (second compound 10 µM, first compound 0.3 µM) 4.97% | viability, T/C (second compound 10 µM, first compound 0.949 µM) 0.49% | viability, T/C (second compound 10 µM, first compound 3 µM) 0.34%
inactive: viability, T/C (second compound 0.0316 µM, first compound 0.00949 µM) 105% | viability, T/C (second compound 0.0316 µM, first compound 0.03 µM) 103% | viability, T/C (second compound 0.0316 µM, first compound 0.0949 µM) 124% | viability, T/C (second compound 0.0316 µM, first compound 0.3 µM) 35.5% | viability, T/C (second compound 0.1 µM, first compound 0.00949 µM) 44.5% | viability, T/C (second compound 0.1 µM, first compound 0.03 µM) 42.2% | viability, T/C (second compound 0.1 µM, first compound 0.0949 µM) 28.9% | viability, T/C (second compound 0.1 µM, first compound 0.3 µM) 10.7% | viability, T/C (second compound 0.316 µM, first compound 0.00949 µM) 29.7% | viability, T/C (second compound 0.316 µM, first compound 0.03 µM) 29.7% | viability, T/C (second compound 0.316 µM, first compound 0.0949 µM) 27.1% | viability, T/C (second compound 0.316 µM, first compound 0.3 µM) 8.97% | viability, T/C (second compound 1 µM, first compound 0.00949 µM) 21.2% | viability, T/C (second compound 1 µM, first compound 0.03 µM) 24% | viability, T/C (second compound 1 µM, first compound 0.0949 µM) 19.4% | viability, T/C (second compound 3.16 µM, first compound 0.00949 µM) 16.4% | viability, T/C (second compound 3.16 µM, first compound 0.03 µM) 17.2% | viability, T/C (second compound 3.16 µM, first compound 0.0949 µM) 13.8% | viability, T/C (second compound 10 µM, first compound 0.00949 µM) 16.3% | viability, T/C (second compound 10 µM, first compound 0.03 µM) 16.8% | viability, T/C (second compound 10 µM, first compound 0.0949 µM) 11.7%
240 nM: IC50 (second compound 0.0316 µM)
< 9.49 nM: IC50 (second compound 0.1 µM) | IC50 (second compound 0.316 µM) | IC50 (second compound 1 µM) | IC50 (second compound 3.16 µM) | IC50 (second compound 10 µM)

Nc1ccccc1NC(=O)c1ccc(CNC(=O)OCc2cccnc2)cc1 + CNC(=O)c1ccc(Nc2nc(OC3CCCC3)c3c(-c4ccc5nc(C)oc5c4)c[nH]c3n2)c(OC)c1
2980 nM: IC50 (second compound 0.0316 µM)
< 31.6 nM: IC50 (second compound 0.316 µM) | IC50 (second compound 1 µM) | IC50 (second compound 3.16 µM) | IC50 (second compound 10 µM)
44.4 nM: IC50 (second compound 0.1 µM)
inactive: viability, T/C [1] 82% | viability, T/C [2] 109% | viability, T/C [3] 109% | viability, T/C [4] 87.8% | viability, T/C [5] 48.3% | viability, T/C [7] 51% | viability, T/C [8] 47.9% | viability, T/C [9] 35% | viability, T/C [10] 24.9% | viability, T/C [11] 15.6% | viability, T/C [13] 33.1% | viability, T/C [14] 27.7% | viability, T/C [15] 16.4% | viability, T/C [16] 11.1% | viability, T/C [19] 23.7% | viability, T/C [20] 18.4% | viability, T/C [21] 14.7% | viability, T/C [22] 8.67% | viability, T/C [25] 17.5% | viability, T/C [26] 16.4% | viability, T/C [27] 10.7% | viability, T/C [31] 17.6% | viability, T/C [32] 14.9% | viability, T/C [33] 8.73%
active: viability, T/C [6] 0.6% | viability, T/C [12] 0.18% | viability, T/C [17] 5.55% | viability, T/C [18] 0.32% | viability, T/C [23] 8.05% | viability, T/C [24] 0.14% | viability, T/C [28] 6.76% | viability, T/C [29] 6.55% | viability, T/C [30] 0.19% | viability, T/C [34] 6.93% | viability, T/C [35] 6.45% | viability, T/C [36] 0.27%
